Results taken from patent US8536212B2, “Protective agent for retinal nerve or optic nerve” (Sanwa Kagaku Kenkyusho Co., Ltd., priority 2007, dated 2013).

Tested on: retinal ganglion cells
Experiment: Mouse ophthalmic artery occlusion model: retinal ischemia 2 hours, reperfusion 22 hours, survival of retinal ganglion cells
Assay type: in vivo, C57BL/6N normal mice (wild type mice)
Conditions: for The number of surviving retinal ganglion cells per 1 μm of retina section, average ± SEM: drug given by forced intragastric administration 15 minutes before reperfusion
Protocol: In the experiment, mouse models with acute ophthalmic artery infarction, namely, mouse models with ophthalmic artery infarction were used. In Experiment 1, eight to ten-week-old C57BL/6N normal mice (wild type mice) were used and the therapeutic efficacy of fidarestat as the compound with aldose reductase (AR) inhibiting activity was evaluated. Here, those mice were divided into two groups: a control group to which only vehicle was administered and a fidarestat administered group to which fidarestat was administered. In Experiment 2, eight to ten-week-old C57BL/6N normal mice (wild type mice:AR^+/+ mice) and AR gene-deficient mice (AR^−/− mice) were used and the role of AR was examined. Here, those mice were divided into two groups: a wild type mouse group (AR^+/+ mice) and an AR gene-deficient mouse group (AR^−/− mice) and a drug administered group was not used.
Used mice (24 to 28 g of body weight) were subjected to intraluminal suture with nylon monofilament under gas anesthesia. A nylon filament was inserted into the right internal carotid artery at the bifurcation of the middle cerebral artery and the anterior cerebral artery from the common carotid artery. The mice were subjected to retinal ischemia in the right eye. The filament was pulled 2 hours after the ischemia and reperfusion was performed for 22 hours. On the other hand, left eye was evaluated as a normal control eye. In order to confirm ischemia or reperfusion, relative cerebral blood flow (rCBF) in the middle cerebral artery was monitored with a laser Doppler meter during the experiment. Decrease in the rCBF of 75% or more was defined as middle cerebral artery ischemia. The drug was administered 15 minutes before reperfusion starts by forced intragastric administration. At the end of the experiment, the isolated eyes were fixed in 4% paraformaldehyde at 4° C. overnight. The retinal ganglion cell layer was subjected to hematoxylin and eosin stain. Then, the number of surviving retinal ganglion cells was observed and measured. […] All cells of the retina ganglionic layer in each retina section were measured. Further, all measurements were performed by a blind fashion.

## NC(=O)[C@@H]1C[C@]2(NC(=O)NC2=O)c2cc(F)ccc2O1 [Fidarestat, (2S,4S)-6-fluoro-2′,5′-dioxospiro[chroman-4,4′-imidazolidine]-2-carboxamide]
Side of no retinal ischemia (left eye, normal control eye)
  The number of surviving retinal ganglion cells per 1 μm of retina section, average ± SEM: 23 ± 1 per 1 μm of retina section
Side of retinal ischemia (right eye), 2 hours ischemia and 22 hours reperfusion, P<0.001 vs control group
  The number of surviving retinal ganglion cells per 1 μm of retina section, average ± SEM: 21 ± 1^†††^ per 1 μm of retina section
Side of retinal ischemia or side of no retinal ischemia, 2 hours ischemia, 22 hours reperfusion (FIG. 1: D3, D4)
  Pathological finding showing retinal ganglion cell death (hematoxylin and eosin stain): not observed
Side of retinal ischemia, P<0.001
  Number of surviving retinal ganglion cells on the side of retinal ischemia compared with the control group: significantly increased
